Laboratory results: publication PMC12314892, “Macrocyclic Phage Display for Identification of Selective Protease Substrates” (Journal of the American Chemical Society, 2025)
“Also recorded” adds a separate entry of the source. *1 amine or outer side, *2 acyl side, *3 side chain or, on linkers, in order; H or OH if unused. Where a SMILES comes first, the peptide text is derived from it. Bridges are numbered along the chain shown (N, C = ends). The star is where a group is joined. X1 = NC(=O)Cc1cc(=O)oc2cc(NC(=O)[C@@H]3CCCN3C(=O)Cn3nc(C[*:1])cc3C[*:2])ccc12; X2 = NC(=O)Cc1cc(=O)oc2cc(NC(=O)[C@@H]3CCCN3C(=O)Cn3nc(C[*:2])cc3C[*:1])ccc12; AMC = Cc1cc(=O)oc2cc(N*)ccc12; Cbz = O=C(OCc1ccccc1)*

Tested on: HEK293 Tet-Off cells with inducible FAPα expression
Test: Live-cell substrate assay
Format: cell-based
Conditions: triplicate; for substrate cleavage in cells after inhibitor pre-treatment, in words: cells pre-treated 30 min at 37 °C with 1 μM UAMC-1100 (FAPα) or VbP (DPP4) before 200 μM substrate; for substrate cleavage in cells (mean slope RFU per minute), in words: HEK293 FAP+ vs doxycycline-suppressed FAP- cells, 1400 cells per well in PBS, 200 μM substrate, 37 °C, 90 min
Description: 7.5. The following commercial substrates were used: zGP-AMC (Bachem,Catalog No.: […]
conducted in Greiner Bio-One black microplates of 384 wells and polystyrene F-bottom (Catalog No.: 784076). All compounds were dissolved in DMSO at a concentration of 10 mM and then diluted into the respective buffer to the desired final concentration. […]
ACC substrates. […]
HEK tet-off FAPα stable clonal cell line, received from the group of Jan Konvalinka, IOCB Prague, was cultured in IMDM medium with L-glutamine (Sigma-Aldrich, 51471C-1000ML), and supplemented with 10% […] and antibiotics – Geneticin G418 400 μg/ml (Roche, G418-RO) and Puromycin 0.5 μg/ml (Corning, MT61385RA) or Doxycycline 100 ng/ml (Sigma-Aldrich, D9891-1G). In general, cells were passaged at least two times after thawing before their use in cellular […]
assays. FAPα expression was suppressed with Doxycycline for at least a week prior to an […]
Live-cell substrate assay
Cells were grown to near confluency and harvested via trypsinization. After dissociation, extra media with serum was added to prevent further trypsinization. To collect the cells, those were centrifuged for 3 min at 500G and media removed. Cells were washed a total of three times with PBS and resuspended in PBS to 100 cells per μL. To perform the activity assay 14 μL of suspended cells in PBS (100 cell/μL) were plated in a black 384-well low volume “V” bottom plate (total of 1400 cells per well) and pre-treated with 2 μL of either vehicle or inhibitors (1 μM final concentration) for 30 min at 37 °C. DMSO was used as the vehicle. The inhibitors used were […]
DPP4 activity, respectively, in addition to other homologous proteases. After this time, 4 μL of the desired substrate was added to a final concentration of 200 μM and the fluorescence was recorded immediately. Fluorescence was measured using a Cytation 3 plate reader (BioTek). All experiments have at least three technical replicates. All assays were conducted at 37°C for 90 min, unless otherwise noted. Fluorescence measurements were performed at ex/em, 355/460 nm for ACC substrates. The substrates velocity was quantified by calculating the slope of the linear […]
3.2 Phage Display Methodology
The library and panning protocol was adapted from Ekanayake et. al.2 […]
The phage encoded library has the terminal sequence AACXXXXXXXCG. The complexity of the library is 1x109. In general a minimum of 5x1010 PFU were used for panning to have 50 copies of each sequence represented at the beginning of panning.
General reagents for phage display
15.5 g of 2X YT broth (1.6% tryptone, 1.0% yeast extract, 0.5% sodium chloride) 500mL of MilliQ water in a 2L flask, autoclaved.
YT media with 30 μg/mL final concentration of chloramphenicol (CA)
15.5 g of 2X YT broth (1.6% tryptone, 1.0% yeast extract, 0.5% sodium chloride) 500 mL of MilliQ water in a 2L flask, autoclaved. Let it cool to room temperature. Add 500 μL of 30 mg/mL chloramphenicol in ethanol.
Agar plates of YT media with chloramphenicol (30 μg/mL CA)
Weight out 31 g of 2X YT broth (1.6% tryptone, 1.0% yeast extract, 0.5% sodium chloride), 15 g of agar and add 1000 mL of MilliQ water. Autoclave. Let it cool down to approximately 55°C and add 1000 μL of 30 mg/mL CA in ethanol. Mix and pour into plates under sterile conditions.

SMILES | substrate cleavage in cells after inhibitor pre-treatment, in words | substrate cleavage in cells (mean slope RFU per minute), in words
Cc1cc(=O)oc2cc(NC(=O)[C@@H]3CCCN3C(=O)CNC(=O)OCc3ccccc3)ccc12 [zGP-AMC] (Cbz-Gly-Pro-{AMC}) | processed in the presence of both inhibitors; also recorded: produced signals in HEK cells even when target proteases were chemically inhibited | 
CC(C)C[C@@H]1NC(=O)[C@H](CC(N)=O)NC(=O)[C@H](CCC(N)=O)NC(=O)[C@H](Cc2ccccc2)NC(=O)[C@H](CO)NC(=O)[C@H](C(C)C)NC(=O)[C@@H](N)CSCc2cc(nn2CC(=O)N2CCC[C@H]2C(=O)Nc2ccc3c(CC(N)=O)cc(=O)oc3c2)CSC[C@@H](C(=O)NCC(N)=O)NC(=O)[C@H](CC(=O)O)NC1=O [FAP-33.2] (H-CVSFQNLDCG-NH2; linker 1-9 via X2; N-terminus assumed) |  | no activity in cells
CC(C)[C@@H]1NC(=O)[C@@H](N)CSCc2cc(n(CC(=O)N3CCC[C@H]3C(=O)Nc3ccc4c(CC(N)=O)cc(=O)oc4c3)n2)CSC[C@@H](C(=O)NCC(N)=O)NC(=O)[C@H](CC(=O)O)NC(=O)[C@H](C)NC(=O)[C@H](CC(N)=O)NC(=O)[C@H](CCC(N)=O)NC(=O)[C@H](Cc2ccccc2)NC(=O)[C@H](CO)NC1=O [FAP-33.2A6] (H-CVSFQNADCG-NH2; linker 1-9 via X1; N-terminus assumed) | hydrolysis suppressed by the FAPα inhibitor UAMC1100 but not by the DPP4 inhibitor VbP | selectively cleaved in FAP+ cells
Cc1cc(=O)oc2cc(NC(=O)[C@@H]3CCCN3C(=O)CN)ccc12 [GP-AMC] (H-Gly-Pro-{AMC}) | produced signals in HEK cells even when target proteases were chemically inhibited | 
